Data as given in patent US20260240826A1, “COMPOSITIONS FOR PD-L1 INHIBITION AND METHODS OF USE THEREOF” (ARIZONA BOARD OF REGENTS ON BEHALF OF THE UNIVERSITY OF …, priority 2023, published 2026).
“Also recorded” adds a separate entry of the source.

What was measured:
PD-L1 [1] = assay: SSL-induced PD-L1 expression in HaCaT keratinocytes (mRNA, immunoblot); assay type: cell-based, human; settings: 24 hr after SSL
Protocol: Human HaCaT immortalized keratinocytes were maintained in DMEM with 10% FBS and 1× penicillin/streptomycin. Cells were authenticated using STR profiling and tested for mycoplasma regularly. Cells were seeded onto […] at a density of ~200 k/dish and grown for 3 days. Prior to treatment, cells were serum starved overnight to enhance the UV responsiveness of signaling. Cells were ~80% confluent at the time of treatment. BMS-202 (10 μM) in DMSO was added to the media 1 hr prior to SSL (pretreatment).
For SSL treatment, UVA-340 bulbs (Q-Lab Corporation) were used. Before exposure, cells were washed with 1×PBS and then incubated in 4 mL PBS (with 0.01% MgCl2 and 0.01% CaCl2) during irradiation. Cells were exposed to 40 kJ/m2 UVA/2.68 kJ/m2 UVB, then rinsed once more with PBS prior to being placed back into DMEM with 1% FBS+penicillin/streptomycin and vehicle or BMS-202 (post-treatment) and incubated until harvest 24 hr later. Control cells underwent identical processing, except were held in the biosafety cabinet without UV exposure.
Cells were lysed in RIPA containing 1×HALT protease+phosphatase inhibitor cocktail (ThermoFisher Scientific) and 100 mM PMSF and protein concentrations were assessed using BCA assay (Bio-Rad). Mouse epidermal protein lysates for immunoblot analysis were derived from scraped frozen SKH-1 skins as described previously (Blohm-Mangone et al., 2018). […]

[2] = cited from earlier work
PD-L1 [3] = assay: SSL-induced PD-L1 protein in SKH-1 mouse epidermis, immunoblot; assay type: in vivo; settings: topical 8 mM; 24 hr post SSL
Protocol: (§1) UVB exposure was performed on AP-1 luciferase reporter mice on the SKH-1 genetic background at a dose of 2.75 kJ/m2 using FS40 bulbs (Q-Lab Corporation) as described before with the modification that mice were imaged 24 hr post UVB exposure using whole body bioluminescence instead of 48 hr post UVB using ear punches. SSL irradiation of SKH-1 mice (Charles River Laboratories, strain code 477) at a dose of 90 kJ/m2 UVA/6 kJ/m2 UVB was performed using UVA-340 bulbs (Q-Lab Corporation) as described before.
Cells were lysed in RIPA containing 1×HALT protease+phosphatase inhibitor cocktail (ThermoFisher Scientific) and 100 mM PMSF and protein concentrations were assessed using BCA assay (Bio-Rad). Mouse epidermal protein lysates for immunoblot analysis were derived from scraped frozen SKH-1 skins as described previously (Blohm-Mangone et al., 2018). Twenty μg of protein/lane were loaded onto 10% gels for electrophoresis/immunoblotting using established protocols. Human cell lysate blots were probed with Cell Signaling PD-L1 antibody #13684, and mouse epidermal lysate blots were probed with Invitrogen PD-L1 antibody #PA5-20343. Beta-actin (Cell Signaling #4970) was used as a loading control. An anti-rabbit secondary antibody (Cell Signaling #7074) was used for all blots using standard chemiluminescent protocols (Thermo Scientific Pico ECL #34577). […]

PD-L1 [4] = assay: PD-L1 mRNA in SKH-1 mouse skin by RT-qPCR; assay type: in vivo; settings: topical 8 mM; 24 hr after SSL
Protocol: as §1
Total RNA was isolated from SSL-treated mouse skin using the Qiagen RNeasy Mini Kit (Qiagen) according to the manufacturer's protocol. RNA integrity was checked by the RNA 6000 Nano chip kit using Agilent 2100 Bioanalyzer (Agilent Technologies). […] Then, 10 ng of cDNA was used for amplification of target genes by quantitative PCR using the following conditions: 95° C. for 10 min followed by 95° C. for 15 sec and 60° C. for 1 min for a total of 40 cycles performed in the ABI7500 Real-Time PCR System (Applied Biosystems). […] After amplification plots were generated, the Ct values (cycle number at which fluorescence reaches threshold) were recorded and quantified using the comparative (ΔΔCt) Ct method as described in the ABI Prism 7500 sequence detection system user guide. Statistical significance was calculated employing the Student's two-tailed t-test.

[5] = cited from earlier work; remark: listed apart in the source
cleaved caspase-3 = cleaved caspase-3 immunohistochemistry of SKH-1 mouse skin; assay type: in vivo; settings: BMS-202+SSL, 24 hr; vehicle+SSL over 60%
Protocol: as §1
Caspase-3: Briefly, deparaffinized mouse skin slides were subjected to antigen retrieval using a Decloaking chamber in Rodent Decloaker HIER solution (both from Biocare, 115° C. 30 seconds, then 90° C. 10 seconds) followed by blocking with first 3% hydrogen peroxide (10 minutes) and then 5% normal goat serum in PBST (1 hour). Slides were then incubated in a 1:300 dilution of anti-cleaved caspase-3 antibody (#9661, Cell Signal Technology) at 4° C. overnight. […] For quantification, the average count (caspase 3-positive per total epidermal cells) in four fields/slide (20× field) was determined for each mouse skin specimen and calculated per group (n=3).
Mouse IHC data were analyzed using Kruskal-Wallis non-parametric data analysis (GraphPad Prism 10.0 software). […]

[6] = screening based on physicochemical properties (Log P, UVA/UVB absorbance); settings: data not shown
PD-L1 [7] = assay: PD-L1 immunohistochemistry of SKH-1 mouse skin; assay type: in vivo; settings: topical 8 mM pre/post; 24 hr post SSL
Protocol: as §1
PD-L1: IHC staining for PD-L1 in mouse skins was performed using the NBP1-43262 antibody (Novus). Epidermal PD-L1 expression is shown as percent staining determined by ImageJ (NIH, open source) quantification using color deconvolution of the brown stain with a uniform threshold between all samples. Each skin sample (n=3, 20× field) was used to measure at least 3 fields per specimen with the exclusion of hair follicles, if present.
Mouse IHC data were analyzed using Kruskal-Wallis non-parametric data analysis (GraphPad Prism 10.0 software). IHC images shown are magnified according to the 100 μm scale bar contained in the respective panel as specified throughout the figure legends.

**Q.** With `COc1nc(OCc2cccc(-c3ccccc3)c2C)ccc1CNCCNC(C)=O` [BMS-202] as the compound, how does the “SSL-induced PD-L1 mRNA expression” value (PD-L1 [1]) read?
**A.** blocked; also recorded: suppressed dose-dependently

**Q.** And the “SSL-induced PD-L1 protein expression (immunoblot)” value (PD-L1 [1])?
**A.** blocked

**Q.** What about the “systemic availability upon topical application” value [2] of the same compound?
**A.** minimal systemic availability

**Q.** And the “UV-induced PD-L1 upregulation at the protein level (immunoblot)” value (PD-L1 [3])?
**A.** significantly antagonized

**Q.** And the “antagonistic effect on PD-L1 protein, pre- and post-UV application versus pre only” value (PD-L1 [3])?
**A.** more pronounced

**Q.** What about the “PD-L1 mRNA expression in full thickness mouse skin (RT-qPCR)” value (PD-L1 [4]) of the same compound?
**A.** inhibition

**Q.** And the “Log P” value [5]?
**A.** 3.6

**Q.** What about the “percentage of epidermal cells staining positive for cleaved caspase-3” value (cleaved caspase-3) of the same compound?
**A.** approximately 10%

**Q.** What about the UVA/UVB absorbance [6] of the same compound?
**A.** absence of UVA/UVB absorbance

**Q.** What about the “epidermal PD-L1 staining (IHC)” value (PD-L1 [7]) of the same compound?
**A.** pronounced inhibition
